Test results taken from patent publication US7795257B2, “Organic compounds” (Novartis AG, priority 2005, dated 2010).
pEC50: −log10 of the molar value. Counter-ions that a name gives are not always drawn.

The compounds below were run against T1, recombinant GST-GK (Homo sapiens, UniProt P35557) (assay: primary enzyme assay: glucokinase activation in vitro (thio-NADH coupled assay)). Conditions: concentration of compound that produces a 50% increase in the activity of GK vs DMSO control; 10 mM glucose, 25° C.
T1 sequence (P35557 1-465): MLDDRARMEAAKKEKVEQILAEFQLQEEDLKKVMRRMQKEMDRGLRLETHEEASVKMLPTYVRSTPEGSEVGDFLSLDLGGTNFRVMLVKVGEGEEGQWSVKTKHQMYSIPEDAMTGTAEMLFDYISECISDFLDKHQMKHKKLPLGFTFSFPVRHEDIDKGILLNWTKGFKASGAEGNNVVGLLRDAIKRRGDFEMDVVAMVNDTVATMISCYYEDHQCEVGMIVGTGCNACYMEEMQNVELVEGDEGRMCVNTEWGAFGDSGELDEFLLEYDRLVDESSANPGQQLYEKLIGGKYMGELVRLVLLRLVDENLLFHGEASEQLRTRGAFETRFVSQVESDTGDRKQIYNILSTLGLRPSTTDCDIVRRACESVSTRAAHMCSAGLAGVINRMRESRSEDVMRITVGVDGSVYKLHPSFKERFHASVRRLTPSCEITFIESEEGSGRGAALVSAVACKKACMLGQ
Format: biochemical
From the text: For example, the glucokinase activation in vitro may be determined by measuring the activation of recombinant GST-GK by a compound of the present invention in the absence or the presence of GKRP, a 68,000 Da protein inhibitor of GK. In these assays, formation of glucose-6-phosphate is coupled directly to the formation of thio-NADH. GST-GK catalyzes the reaction of glucose and Mg-ATP to produce glucose-6-phosphate and ADP. Glucose-6-phosphate dehydrogenase (G6PDH) reduces thionicotinamide (thio-NAD) to thio-NADH. The assay measures the formation of thio-NADH at […].
The basic GK assay components are as follows: 25 mM HEPES (pH 7.1), 25 mM KCl, 2.5 mM MgCl2, 1 mM ATP (Sigma A-5394), 1 mM DTT, 1 mM thio-NAD (Sigma T-7375), 80 units/mL G6PDH (Sigma G-5885), 10 mM glucose and 110 nM GST-GK. For assessing reversal of GK inhibition by GKRP, 20 μM Fructose-6-phosphate (F-6-P) and 370 nM recombinant GKRP are added to these assay components. Fructose-1-phosphate (F-1-P) at 1 μM is used as a control in the GK/GKRP assay. F-1-P reverses inhibition of GST-GK by GKRP.
The assay is done in standard, 96-well, round-bottom plates (Corning) and the total assay volume is 25 μL. Test compounds are serially diluted into 100% DMSO and 0.5 μL of diluted compound in 100% DMSO is added to the assay plate. Assay reagents (24.5 μL) are added using a Zymark robotic platform. Buffer, containing HEPES, MgCl2, KCl, thio-NAD, G6PDH, glucose and GST-GK, are added (5 μL) using the Zymark 8-channel hand pipet. For the GK/GKRP assay, GKRP and F-6-P are also included. The reaction is then initiated by adding 19.5 μL of buffer containing HEPES, MgCl2, KCl, DTT and ATP using the Zymark Reagent Addition Station/Reagent Addition Module. The plates are read kinetically over 10 min at 25° C. using a SpectraMax Plus microplate spectrophotometer (Molecular Devices, Sunnyvale, Calif.) to monitor the increase in optical density at 405 nm. The GK activity in wells containing test compounds is compared with activity in DMSO control wells. The concentration of compound that produces a 50% increase in the activity of GK is calculated and expressed as EC50.

Row | Structure (SMILES) | pEC50
1 | CN1CCN(S(=O)(=O)c2ccc(C(CC3CCCC3)C(=O)Nc3nccc4ccccc34)cc2)CC1 (stereo not shown) [Example 1, 3-Cyclopentyl-N-isoquinolin-1-yl-2-[4-(4-methyl-piperazine-1-sulfonyl)-phenyl]-propionamide hydrochloride] | 4.30
2 | CCN(CC)S(=O)(=O)c1ccc(C(CC2CCCC2)C(=O)Nc2nc3c(s2)CN(C(=O)OC(C)(C)C)CC3)cc1 (stereo not shown) [Example 4-8, 2-[3-Cyclopentyl-2-(4-diethylsulfamoyl-phenyl)-propionylamino]-6,7-dihydro-4H-thiazolo[5,4-c]pyridine-5-carboxylic acid tert-butyl ester] | 7.02
3 | CCN(CC)S(=O)(=O)c1ccc(C(CC2CCCC2)C(=O)Nc2nccs2)cc1 (stereo not shown) [Example 4-15, 3-Cyclopentyl-2-(4-diethylsulfamoyl-phenyl)-N-thiazol-2-yl-propionamide] | 7.22
4 | CN1CCN(S(=O)(=O)c2ccc(C(CC3CCCC3)C(=O)Nc3nccc4ccccc34)cc2)CC1 (stereo not shown) [Example 4-1, 3-Cyclopentyl-N-isoquinolin-1-yl-2-[4-(4-methyl-piperazine-1-sulfonyl)-phenyl]-propionamide] | 5.96
5 | COc1ccc2nc(NC(=O)C(CC3CCCC3)c3ccc(S(=O)(=O)N4CCC(C(=O)O)CC4)cc3)sc2n1 (stereo not shown) [Example 3, 1-{4-[2-Cyclopentyl-1-(5-methoxy-thiazolo[5,4-b]pyridin-2-ylcarbamoyl)-ethyl]-benzenesulfonyl}-piperidine-4-carboxylic acid] | 5.15

Further lines, results first:

Row | pEC50 | Structure (SMILES)
6 | 5.85 | CN1CCN(S(=O)(=O)c2ccc(C(CC3CCCC3)C(=O)Nc3ccc(C(=O)O)cn3)cc2)CC1 (stereo not shown) [Example 4-23, 6-{3-Cyclopentyl-2-[4-(4-methyl-piperazine-1-sulfonyl)-phenyl]-propionylamino}-nicotinic acid]
7 | 6.41 | CN1CCN(S(=O)(=O)c2ccc(C(CC3CCCC3)C(=O)Nc3nc4ccc(Br)nc4s3)cc2)CC1 (stereo not shown) [Example 4-22, N-(5-Bromo-thiazolo[5,4-b]pyridin-2-yl)-3-cyclopentyl-2-[4-(4-methyl-piperazine-1-sulfonyl)-phenyl]-propionamide]
8 | 5.68 | COCCN(C)C(=O)c1ccc2nc(NC(=O)[C@H](CC3CCCC3)c3ccc(S(=O)(=O)N4CCN(C)CC4)cc3)sc2n1 [Example 4-52, 2-{(R)-3-Cyclopentyl-2-[4-(4-methyl-piperazine-1-sulfonyl)-phenyl]-propionylamino}-thiazolo[5,4-b]pyridine-5-carboxylic acid (2-methoxy-ethyl)-methyl-amide]
9 | 6.59 | CN1CCN(S(=O)(=O)c2ccc(C(CC3CCCC3)C(=O)Nc3nc4ccc(-c5ccccc5)nc4s3)cc2)CC1 (stereo not shown) [Example 4-44, 3-Cyclopentyl-2-[4-(4-methyl-piperazine-1-sulfonyl)-phenyl]-N-(5-phenyl-thiazolo[5,4-b]pyridin-2-yl)-propionamide]
10 | 5.03 | COc1ccc2nc(NC(=O)C(CC3CCCC3)c3ccc(S(=O)(=O)N4CCNCC4C(=O)O)cc3)sc2n1 (stereo not shown) [Example 4-94, 1-{4-[2-Cyclopentyl-1-(5-methoxy-thiazolo[5,4-b]pyridin-2-ylcarbamoyl)-ethyl]-benzenesulfonyl}-piperazine-2-carboxylic acid]
